Assay results as given in patent US20180155344A1, “TRICYCLIC PIPERIDINE COMPOUNDS” (ACTELION PHARMACEUTICALS LTD, priority 2015, published 2018).

Target: T1, human TPH1 (Homo sapiens, UniProt P17752)
T1 sequence (P17752 1-444): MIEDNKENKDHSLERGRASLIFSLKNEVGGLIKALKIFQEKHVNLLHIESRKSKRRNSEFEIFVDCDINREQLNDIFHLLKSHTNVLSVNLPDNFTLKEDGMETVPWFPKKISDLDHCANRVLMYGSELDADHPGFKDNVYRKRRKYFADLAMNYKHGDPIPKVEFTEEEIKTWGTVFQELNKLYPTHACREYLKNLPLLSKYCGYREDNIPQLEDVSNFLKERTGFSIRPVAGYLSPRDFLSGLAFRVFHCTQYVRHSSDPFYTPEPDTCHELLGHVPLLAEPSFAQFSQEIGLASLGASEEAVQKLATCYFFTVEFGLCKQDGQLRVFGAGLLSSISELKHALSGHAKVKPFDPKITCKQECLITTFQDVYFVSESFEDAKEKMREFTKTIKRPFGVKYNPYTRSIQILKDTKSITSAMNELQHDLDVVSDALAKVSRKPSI
Test: biochemical
How it was run: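 Inhibition is derived from 5-hydroxy-L-tryptophan fluorescence (540 nm emission, 300 nm excitation) after perchloric acid stop, relative to DMSO vehicle. Recombinant full-length human enzyme (40-80 nM) reacts with 40 μM tryptophan plus 100 μM methyltetrahydropterin, pH 7.6 Tris/DTT/catalase, 15° C, 60 min.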

SMILES	IC50 [nM]
O=C(COc1ccc2ccccc2c1)N1CCc2nc3cc(C(F)(F)F)ccn3c2C1c1cc(-c2ccc(F)cc2)on1 (stereo not shown) [Example 3.47.1, 1-(1-(5-(4-fluorophenyl)isoxazol-3-yl)-7-(trifluoromethyl)-3,4-dihydroimidazo[1,2-a:5,4-c′]dipyridin-2(1H)-yl)-2-(naphthalen-2-yloxy)ethan-1-one]	368
O=C(COc1ccc(CN2CCOCC2)cc1Cl)N1CCc2nc3cc(C(F)(F)F)ccn3c2C1c1cc(-c2ccc(F)cc2)on1 (stereo not shown) [Example 3.47.2, 2-(2-chloro-4-(morpholinomethyl)phenoxy)-1-(1-(5-(4-fluorophenyl)isoxazol-3-yl)-7-(trifluoromethyl)-3,4-dihydroimidazo[1,2-a:5,4-c′]dipyridin-2(1H)-yl)ethan-1-one]	41
O=C(COc1ccc(CN2CCOCC2)cc1Cl)N1CCc2nc3cc(C(F)(F)F)ccn3c2C1c1ncn2ccccc12 (stereo not shown) [Example 3.48.1, 2-(2-chloro-4-(morpholinomethyl)phenoxy)-1-(1-(imidazo[1,5-a]pyridin-1-yl)-7-(trifluoromethyl)-3,4-dihydroimidazo[1,2-a:5,4-c′]dipyridin-2(1H)-yl)ethan-1-one]	214
O=C(COc1ccc2ccccc2c1)N1CCc2nc3cc(C(F)(F)F)ccn3c2C1c1cc2cccnc2s1 (stereo not shown) [Example 3.49.1, 2-(naphthalen-2-yloxy)-1-(1-(thieno[2,3-b]pyridin-2-yl)-7-(trifluoromethyl)-3,4-dihydroimidazo[1,2-a:5,4-c′]dipyridin-2(1H)-yl)ethan-1-one]	47
O=C(COc1ccc(CN2CCOCC2)cc1Cl)N1CCc2nc3cc(C(F)(F)F)ccn3c2C1c1cc2cccnc2s1 (stereo not shown) [Example 3.49.2, 2-(2-chloro-4-(morpholinomethyl)phenoxy)-1-(1-(thieno[2,3-b]pyridin-2-yl)-7-(trifluoromethyl)-3,4-dihydroimidazo[1,2-a:5,4-c′]dipyridin-2(1H)-yl)ethan-1-one]	13
Cc1noc(C)c1C1c2c(nc3cc(C(F)(F)F)ccn23)CCN1C(=O)COc1ccc(CN2CCOCC2)cc1Cl (stereo not shown) [Example 3.51.2, 2-(2-chloro-4-(morpholinomethyl)phenoxy)-1-(1-(3,5-dimethylisoxazol-4-yl)-7-(trifluoromethyl)-3,4-dihydroimidazo[1,2-a:5,4-c′]dipyridin-2(1H)-yl)ethan-1-one]	217
COc1ccc(C2c3c(nc4cc(C(F)(F)F)ccn34)CCN2C(=O)COc2ccc(CN3CCOCC3)cc2Cl)nc1 (stereo not shown) [Example 3.52.2, 2-(2-chloro-4-(morpholinomethyl)phenoxy)-1-(1-(5-methoxypyridin-2-yl)-7-(trifluoromethyl)-3,4-dihydroimidazo[1,2-a:5,4-c′]dipyridin-2(1H)-yl)ethan-1-one]	74
CCc1ncc(C2c3c(nc4cc(C(F)(F)F)ccn34)CCN2C(=O)COc2ccc(CN3CCOCC3)cc2Cl)cn1 (stereo not shown) [Example 3.54.2, 2-(2-chloro-4-(morpholinomethyl)phenoxy)-1-(1-(2-ethylpyrimidin-5-yl)-7-(trifluoromethyl)-3,4-dihydroimidazo[1,2-a:5,4-c′]dipyridin-2(1H)-yl)ethan-1-one]	415
COc1ncc(C2c3c(nc4cc(C(F)(F)F)ccn34)CCN2C(=O)COc2ccc(CN3CCOCC3)cc2Cl)cn1 (stereo not shown) [Example 3.55.2, 2-(2-chloro-4-(morpholinomethyl)phenoxy)-1-(1-(2-methoxypyrimidin-5-yl)-7-(trifluoromethyl)-3,4-dihydroimidazo[1,2-a:5,4-c′]dipyridin-2(1H)-yl)ethan-1-one]	266
O=C(COc1ccc(CN2CCOCC2)cc1Cl)N1CCc2nc3cc(C(F)(F)F)ccn3c2C1c1ccnc(Cl)c1 (stereo not shown) [Example 3.56.2, 2-(2-chloro-4-(morpholinomethyl)phenoxy)-1-(1-(2-chloropyridin-4-yl)-7-(trifluoromethyl)-3,4-dihydroimidazo[1,2-a:5,4-c′]dipyridin-2(1H)-yl)ethan-1-one]	295
Cc1cc(C2c3c(nc4cc(C(F)(F)F)ccn34)CCN2C(=O)COc2ccc(CN3CCOCC3)cc2Cl)ccn1 (stereo not shown) [Example 3.57.2, 2-(2-chloro-4-(morpholinomethyl)phenoxy)-1-(1-(2-methylpyridin-4-yl)-7-(trifluoromethyl)-3,4-dihydroimidazo[1,2-a:5,4-c′]dipyridin-2(1H)-yl)ethan-1-one]	35
O=C(COc1ccc(CN2CCOCC2)cc1Cl)N1CCc2nc3cc(C(F)(F)F)ccn3c2C1c1ccc(Cl)cn1 (stereo not shown) [Example 3.58.1, 2-(2-chloro-4-(morpholinomethyl)phenoxy)-1-(1-(5-chloropyridin-2-yl)-7-(trifluoromethyl)-3,4-dihydroimidazo[1,2-a:5,4-c′]dipyridin-2(1H)-yl)ethan-1-one]	30

Results, then the compound that gave them:

IC50 [nM]	SMILES
349	Cc1cc(C2c3c(nc4cc(C(F)(F)F)ccn34)CCN2C(=O)COc2ccc3ccccc3c2)no1 (stereo not shown) [Example 3.45.1, 1-(1-(5-methylisoxazol-3-yl)-7-(trifluoromethyl)-3,4-dihydroimidazo[1,2-a:5,4-c′]dipyridin-2(1H)-yl)-2-(naphthalen-2-yloxy)ethan-1-one]
22	O=C(COc1ccc(CN2CCOCC2)cc1Cl)N1CCc2nc3cc(C(F)(F)F)ccn3c2C1c1cc(-c2ccccc2)on1 (stereo not shown) [Example 3.46.1, 2-(2-chloro-4-(morpholinomethyl)phenoxy)-1-(1-(5-phenylisoxazol-3-yl)-7-(trifluoromethyl)-3,4-dihydroimidazo[1,2-a:5,4-c′]dipyridin-2(1H)-yl)ethan-1-one]
206	O=C(COc1ccc2ccccc2c1)N1CCc2nc3cc(C(F)(F)F)ccn3c2C1c1cc(-c2ccccc2)on1 (stereo not shown) [Example 3.46.2, 2-(naphthalen-2-yloxy)-1-(1-(5-phenylisoxazol-3-yl)-7-(trifluoromethyl)-3,4-dihydroimidazo[1,2-a:5,4-c′]dipyridin-2(1H)-yl)ethan-1-one]
58	Cc1ccc(C2c3c(nc4cc(C(F)(F)F)ccn34)CCN2C(=O)COc2ccc3ccccc3c2)nc1 (stereo not shown) [Example 3.50.1, 1-(1-(5-methylpyridin-2-yl)-7-(trifluoromethyl)-3,4-dihydroimidazo[1,2-a:5,4-c′]dipyridin-2(1H)-yl)-2-(naphthalen-2-yloxy)ethan-1-one]
100	Cc1ccc(C2c3c(nc4cc(C(F)(F)F)ccn34)CCN2C(=O)COc2ccc(CN3CCOCC3)cc2Cl)nc1 (stereo not shown) [Example 3.50.2, 2-(2-chloro-4-(morpholinomethyl)phenoxy)-1-(1-(5-methylpyridin-2-yl)-7-(trifluoromethyl)-3,4-dihydroimidazo[1,2-a:5,4-c′]dipyridin-2(1H)-yl)ethan-1-one]
468	Cc1ccc(C2c3c(nc4cc(C(F)(F)F)ccn34)CCN2C(=O)COc2cc(-c3ccccc3)nn2C)nc1 (stereo not shown) [Example 3.50.3, 2-((1-methyl-3-phenyl-1H-pyrazol-5-yl)oxy)-1-(1-(5-methylpyridin-2-yl)-7-(trifluoromethyl)-3,4-dihydroimidazo[1,2-a:5,4-c′]dipyridin-2(1H)-yl)ethan-1-one]
87	Cc1noc(C)c1C1c2c(nc3cc(C(F)(F)F)ccn23)CCN1C(=O)COc1ccc2ccccc2c1 (stereo not shown) [Example 3.51.1, 1-(1-(3,5-dimethylisoxazol-4-yl)-7-(trifluoromethyl)-3,4-dihydroimidazo[1,2-a:5,4-c′]dipyridin-2(1H)-yl)-2-(naphthalen-2-yloxy)ethan-1-one]
90	COc1ccc(C2c3c(nc4cc(C(F)(F)F)ccn34)CCN2C(=O)COc2ccc3ccccc3c2)nc1 (stereo not shown) [Example 3.52.1, 1-(1-(5-methoxypyridin-2-yl)-7-(trifluoromethyl)-3,4-dihydroimidazo[1,2-a:5,4-c′]dipyridin-2(1H)-yl)-2-(naphthalen-2-yloxy)ethan-1-one]
161	Cc1ncc(C2c3c(nc4cc(C(F)(F)F)ccn34)CCN2C(=O)COc2ccc3ccccc3c2)cn1 (stereo not shown) [Example 3.53.1, 1-(1-(2-methylpyrimidin-5-yl)-7-(trifluoromethyl)-3,4-dihydroimidazo[1,2-a:5,4-c′]dipyridin-2(1H)-yl)-2-(naphthalen-2-yloxy)ethan-1-one]
203	CCc1ncc(C2c3c(nc4cc(C(F)(F)F)ccn34)CCN2C(=O)COc2ccc3ccccc3c2)cn1 (stereo not shown) [Example 3.54.1, 1-(1-(2-ethylpyrimidin-5-yl)-7-(trifluoromethyl)-3,4-dihydroimidazo[1,2-a:5,4-c′]dipyridin-2(1H)-yl)-2-(naphthalen-2-yloxy)ethan-1-one]
67	COc1ncc(C2c3c(nc4cc(C(F)(F)F)ccn34)CCN2C(=O)COc2ccc3ccccc3c2)cn1 (stereo not shown) [Example 3.55.1, 1-(1-(2-methoxypyrimidin-5-yl)-7-(trifluoromethyl)-3,4-dihydroimidazo[1,2-a:5,4-c′]dipyridin-2(1H)-yl)-2-(naphthalen-2-yloxy)ethan-1-one]
195	O=C(COc1ccc2ccccc2c1)N1CCc2nc3cc(C(F)(F)F)ccn3c2C1c1ccnc(Cl)c1 (stereo not shown) [Example 3.56.1, 1-(1-(2-chloropyridin-4-yl)-7-(trifluoromethyl)-3,4-dihydroimidazo[1,2-a:5,4-c′]dipyridin-2(1H)-yl)-2-(naphthalen-2-yloxy)ethan-1-one]
155	Cc1cc(C2c3c(nc4cc(C(F)(F)F)ccn34)CCN2C(=O)COc2ccc3ccccc3c2)ccn1 (stereo not shown) [Example 3.57.1, 1-(1-(2-methylpyridin-4-yl)-7-(trifluoromethyl)-3,4-dihydroimidazo[1,2-a:5,4-c′]dipyridin-2(1H)-yl)-2-(naphthalen-2-yloxy)ethan-1-one]
